14 molecules from EP4692072A1, “PHOTOCHROMIC COMPOUND, PROPARGYL ALCOHOL COMPOUND, CURABLE COMPOSITION, OPTICAL ARTICLE, LENS, AND SPECTACLES” (TOKUYAMA CORPORATION, priority 2023, dated 2024) can be followed below.

A short description of data set [1]: Photochromic properties of photochromic laminate (plastic lens) prepared by coating method. It is filed as physicochemical. As to conditions: 40 µm photochromic layer on thiourethane lens, 0.25 mmol compound per 100 g monomers, after color development. An excerpt: (§1) First, the photochromic compound obtained in Example 1, a photoinitiator, and a polymerizable compound were mixed to obtain a curable composition.
(§2) Polyethylene glycol dimethacrylate (average molecular weight: 736): 42 parts by mass • Polyethylene glycol dimethacrylate (average molecular weight: 536): 12 parts by mass • Trimethylolpropane trimethacrylate: 38 parts by mass γ-methacryloyloxypropyl trimethoxysilane: 2 parts by mass Glycidyl methacrylate: 1 part by mass
(§3) Note that the photochromic compound was added to the curable composition so that the amount of the photochromic compound was 0.25 mmol based on 100 g of the total amount of the radical-polymerizable monomers.
(§4) Phenylbis(2,4,6-trimethylbenzoyl)phosphine oxide (photoinitiator: Omnirad 819): 0.3 parts by mass Ethylene bis(oxyethylene) bis[3-(5-tert-butyl-4-hydroxy-m-tolyl)propionate] (stabilizer, Irganox 245): 1 part by mass Bis(1,2,2,6,6-pentamethyl-4-piperidyl) sebacate: 3 parts by mass Leveling agent (L7001) manufactured by Dow Corning Toray Co.,Ltd.: 0.1 part by mass
(§5) First, a thiourethane-based plastic lens having a central thickness of 2 mm and a refractive index of 1.60 was prepared as the optical substrate. Note that this thiourethane-based plastic lens was pre-treated by alkaline etching with a 10% sodium hydroxide aqueous solution at 50°C for 5 minutes, followed by sufficient washing with distilled water.
(§6) A surface of the above-described plastic lens was coated with a moisture-curable primer (product name: TR-SC-P, manufactured by Tokuyama Corporation) at a rotation frequency of 70 rpm for 15 seconds, followed by 1000 rpm for 10 seconds, using a spin coater (1H-DX2, manufactured by MIKASA CO., LTD), Subsequently, about 2 g of the photochromic curable composition obtained above was spin-coated at a rotation frequency of 60 rpm for 40 seconds, followed by 600 rpm for 10 to 20 seconds, to form a photochromic coating layer with a film thickness of 40 µm.
(§7) The lens with the surface coated with the photochromic curable composition (photochromic coating layer) was irradiated with light using a metal halide lamp with an output power of 200 mW/cm^2 in a nitrogen gas atmosphere for 90 seconds to cure the coating film. Subsequently, the lens was further heated at 110°C for 1 hour to prepare a photochromic laminate having a photochromic layer.
In the same manner as in Example 26, photochromic laminates were prepared using the photochromic compounds obtained in Examples 2 to 25.
(§8) • [1] Maximum Absorption Wavelength (λmax): The maximum absorption wavelength after color development, measured using a spectrophotometer (instantaneous multichannel photodetector MCPD3000) manufactured by Otsuka Electronics Co., Ltd. was used as an indicator for the color tone during the color development. • [2] 23°C Color Optical Density (A23): A difference between an absorbancy measured after light irradiation at 23°C for 300 seconds {ε(300)} and an absorbancy without light irradiation ε(0) at the maximum absorption wavelength was used as an indicator for the color optical density. […] 23°C color fading half-life [τ1/2 (sec.)]: A time required for the absorbancy of the sample at the maximum absorption wavelength to decrease to 1/2 of {ε(300)-ε(0)} when the light irradiation was terminated after the light irradiation at 23°C for 300 seconds, was used as an indicator for the color fading speed. The shorter this time, the higher the color fading speed. • [4] Residual rate (A120/A0×100): The obtained photochromic plastic lens was subjected to accelerated deterioration using a xenon weather meter X25 manufactured by Suga Test Instruments Co., Ltd. for 120 hours. Subsequently, the color optical density was evaluated before and after the test, then a color optical density before the test (A0) and a color optical density after the test (A120) were measured, and a ratio (A120/A0) was defined as a residual rate. The residual rate was used as an indicator for a color developing durability. […]

Data set [2] in a line: Accelerated deterioration (xenon weather meter X25, 120 hours) of photochromic laminate prepared by coating method. As to conditions: 0.25 mmol per 100 g monomers, A120/A0×100 after 120 hours xenon weather meter. The format is physicochemical.
Text: as §1, §2, §3, §4, §5, §6, §7
as §8, with “durability. The higher the residual rate, the higher the color developing durability.” for “durability.”

`CCCCC1(CCCC)c2cc([Si](C)(c3ccccc3)c3ccccc3)ccc2-c2c1c1c(c3cc(OC)c(C)cc23)OC(c2ccc(C)cc2)(c2ccc(N(C)c3ccccc3)cc2)C=C1` (centres unmarked) [Example 15]: the results for the Maximum absorption wavelength in data set [1] and in data set [1] (listed as Formula (75)) were 487 nm and 602 nm, respectively. Also, the Residual rate in data set [2] stood at 58%.
`COc1ccc(C2(c3ccc(N(c4ccccc4)C4CCCCC4)cc3)C=Cc3c4c(c5cc(OC)c(OC)cc5c3O2)-c2ccccc2C4(CCCCF)CCCCF)cc1` (centres unmarked) [Example 6]: the results for the Maximum absorption wavelength in data set [1] and in data set [1] (listed as Formula (53)) were 481 nm and 593 nm, respectively. Besides, the values for the Residual rate in data set [2] and in data set [2] (listed as Formula (53)) were 70% and 63%, respectively.
On to `COc1cc2c3c(c4c(c2cc1OC)-c1ccc(-c2ccc(C(F)(F)F)cc2)cc1C4(CCCC(F)(F)F)CCCC(F)(F)F)C=CC(c1ccc(Oc2ccccc2)cc1)(c1ccc(N(C)c2ccccc2)cc1)O3` (centres unmarked) [Example 13], for which the results for the Maximum absorption wavelength in data set [1] and in data set [1] (listed as Formula (69)) were 489 nm and 605 nm, respectively. Besides, the Residual rate in data set [2] is recorded as 65%; in data set [2] (listed as Formula (69)), 60%.
`CCCOc1ccc(C2(c3ccc(N(CC(F)(F)F)c4ccccc4)cc3)C=Cc3c4c(c5ccccc5c3O2)-c2ccccc2C42CCCCCCC2)cc1` (centres unmarked) [Example 9]: the Maximum absorption wavelength in data set [1] came to 578 nm. The molecule also returned a Residual rate in data set [2] of 62%.
`COc1ccc(C2(c3ccc(N(C)c4ccccc4)cc3)C=Cc3c4c(c5cc(-c6c(OC)cc(OC)cc6OC)c(OC)cc5c3O2)-c2ccc(C)cc2C4(CCCSC)CCCSC)cc1` (centres unmarked) [Example 12]: the Maximum absorption wavelength in data set [1] was determined as 478 nm; in data set [1] (listed as Formula (66)) it was 614 nm. In addition, the Residual rate in data set [2] was 65%.
`CCCC1(CCC)c2ccccc2-c2c1c1c(c3cc(OC)c(N(c4ccccc4)c4ccccc4)cc23)OC(c2ccc(C)cc2)(c2ccc(N(C)c3ccccc3)cc2)C=C1` (centres unmarked) [Example 22] registered a Maximum absorption wavelength in data set [1] of 530 nm. In data set [2], this molecule came in with a Residual rate of 68%.
Regarding `CCCOc1ccc(C2(c3ccc(N(CC(F)(F)F)c4ccccc4)cc3)C=Cc3c4c(c5cc(-c6ccc(OC)cc6)c(C)cc5c3O2)-c2ccc(C)cc2C4(CC)CC)cc1` (centres unmarked) [Example 17], the results for the Maximum absorption wavelength in data set [1] and in data set [1] (listed as Formula (78)) were 484 nm and 592 nm, respectively. Besides, the Residual rate in data set [2] is listed as 56%.
Regarding `COCCCCC1(CCCCOC)c2cc(-c3ccccc3)ccc2-c2c1c1c(c3cc(OC)c(N4CCS(=O)(=O)CC4)cc23)OC(c2ccc(OCCOCCOC)cc2)(c2ccc(N(C)c3ccccc3)cc2)C=C1` (centres unmarked) [Example 58], the Maximum absorption wavelength in data set [1] was 498 nm; in data set [1] (listed as Formula (114)), 617 nm. Besides, the Residual rate in data set [2] amounted to 60%.
In the case of `COCCCC1(CCCOC)c2cc(-c3ccc(C(C)(C)C)cc3)ccc2-c2c1c1c(c3cc(OC)c(OC)cc23)OC(c2ccc(N(CCOC)c3ccccc3)cc2)(c2ccc3c(c2)OCCO3)C=C1` (centres unmarked) [Example 20], the Maximum absorption wavelength in data set [1] was found to be 486 nm; in data set [1] (listed as Formula (81)), 608 nm. For the same molecule, the Residual rate in data set [2] was 67%; in data set [2] (listed as Formula (81)), 63%.
Take `CCCc1ccc(C2(c3ccc(N(C)c4ccccc4)cc3)C=Cc3c4c(c5cc(OC)ccc5c3O2)-c2ccccc2C42CCCCCCC2)cc1` (centres unmarked) [Example 61]: the Maximum absorption wavelength in data set [1] is listed as 487 nm; in data set [1] (listed as Formula (122)), 564 nm. Besides, the values for the Residual rate in data set [2] and in data set [2] (listed as Formula (122)) were 59% and 57%, respectively.
`CCCCCCC1(CCCCCC)c2ccccc2-c2c1c1c(c3cc(OC)ccc23)OC(c2ccc(F)cc2)(c2ccc(N(CC)c3ccccc3)cc2)C=C1` (centres unmarked) [Example 4]: the Maximum absorption wavelength in data set [1] is listed as 489 nm; in data set [1] (listed as Formula (48)), 601 nm. The same molecule gave a Residual rate in data set [2] of 57%.
With `CCCc1ccc(C2(c3ccc(N(C)c4ccccc4)cc3)C=Cc3c4c(c5cc(-c6ccc(C)cc6)c(C)cc5c3O2)-c2ccccc2C4(CCOC)CCOC)cc1` (centres unmarked) [Example 18], the Maximum absorption wavelength in data set [1] turned out to be 587 nm. In data set [2], this molecule had a Residual rate of 60%.
With `COc1ccc(C2(c3ccc(N(C)c4ccccc4)cc3)C=Cc3c4c(c5cc6c(cc5c3O2)SC(C)(C)S6)-c2ccc(-c3ccc(F)c(F)c3F)cc2C42CCCCCCCCCCC2)cc1` (centres unmarked) [Example 52], the Maximum absorption wavelength in data set [1] came out at 488 nm; in data set [1] (listed as Formula (93)) it was 604 nm. In addition, the Residual rate is 58% in data set [2] and 56% in data set [2] (listed as Formula (93)).
On to `COc1ccc(C2(c3ccc(N(C)c4ccccc4)cc3)C=Cc3c4c(c5cc(-c6ccc(N7CCSCC7)cc6)c(OC)cc5c3O2)-c2ccc(OC)cc2C4(CCC(F)(F)F)CCC(F)(F)F)cc1` (centres unmarked) [Example 54], for which the Maximum absorption wavelength worked out at 501 nm in data set [1] and 628 nm in data set [1] (listed as Formula (96)). In data set [2], the Residual rate came to 67%.
